Laboratory results as given in patent publication US6710048B2, “Pyrazine derivatives as modulators of tyrosine kinases” (Ortho-McNeil Pharmaceutical, Inc., priority 2000, dated 2004).
pIC50: −log10 of the molar value.

Experiments:
Assay type in all cases: cell-based
[1] = tested on: PC-3 prostate adenocarcinoma; test: Cell proliferation assay (14C-thymidine incorporation), PC-3; conditions: Homo sapiens, read-out: Inhibition of cell proliferation IC50
Description: (§1) The ability of a test compound to inhibit the proliferation of cell growth was determined by measuring incorporation of ^14C-labelled thymidine into newly synthesized DNA within the cells. This method was used on cell lines derived from carcinomas originating from several tissues such as HeLa cervical adenocarcinoma (American Type Culture Collection (ATCC), Virginia, Cat. #CCL-2), A375 malignant melanoma (ATCC CRL-1619), SK-OV-3 ovarian adenocarcinoma (ATCC HTB-77) HCT-116 colon carcinoma (CCL-247) and PC-3 prostate adenocarcinoma (ATCC CRL-1435). The method was also used on primary cells such as HUVEC endothelial cells (ATCC CRL-1730). In this way the effect of a compound on cell growth of cells with many different phenotypes can be determined. Cells were trypsinized and counted and 3000-8000 cells were added to each well of a 96-well CytoStar tissue culture treated scintillating microplate (Amersham #RPNQ0160) in complete medium in a volume of 100 μl. Cells were incubated for 24 hours in complete medium at 37° C. in an atmosphere containing 5% CO2.
(§2) Next, 1 μl of test compound in 100% DMSO was added to the wells of the plate. DMSO only was added to control wells. Cells were incubated for 24 more hours in complete medium at 37° C. in an atmosphere containing 5% CO2. Methyl ^14C-thymidine 56 mCi/mmol (NEN #NEC568 or Amersham #CFA532) was diluted in complete medium and 0.2 μCi/well was added to each well of the CytoStar plate in a volume of 20 μl. The plate was incubated for 24 hours at 37° C. plus 5% CO2 in drug plus ^14C-thymidine. The contents of the plate were discarded into a ^14C radioactive waste container by inverting the plate and the plate was washed twice with 200 μl PBS. 200 μl of PBS is then added to each well. The top of the plate was sealed with a transparent plate sealer and a white plate backing sealer (Packard #6005199) was applied to the bottom of the plate. The degree of Methyl ^14C-thymidine incorporation was quantified on a Packard Top Count.

[2] = tested on: HeLa cervical adenocarcinoma; test: Cell proliferation assay (14C-thymidine incorporation), HeLa; conditions: Homo sapiens, read-out: Inhibition of cell proliferation IC50
Description: as §1, §2

MDA-MB-231 = test: Cell proliferation assay (14C-thymidine incorporation), MDA-MB-231; conditions: Homo sapiens, read-out: Inhibition of cell proliferation IC50
Description: as §1, §2

[3] = tested on: SK-OV-3 ovarian adenocarcinoma; test: Cell proliferation assay (14C-thymidine incorporation), SK-OV-3; conditions: Homo sapiens, read-out: Inhibition of cell proliferation IC50
Description: as §1, §2

rat aortic ring = test: Rat aortic ring assay (vascular sprouting); conditions: 192 h; rat aortic ring in fibrin gel, analyzed on day 8; read-out: Inhibition of Vascular Sprouting (IC50μM)
Description: The rat aortic ring assay is a rapid in vitro assay that measures new capillary growth in an environment that closely approximates the in vivo conditions of the extracellular matrix. The assay was performed as described (Nicosia, R F and Ottinetti, A. Growth of new microvessels in serum-free matrix culture of rat aorta. Lab Invest., 63: 115-122, 1990). Thoracic aortas were removed from 1 to 2-month old male Sprague-Dawley rats and transferred to a culture dish containing serum-free MCDB 131 medium (Clonetics). Extraneous tissue was removed and the aorta was sectioned into rings approximately 1 mm long and rinsed 8-10 times in serum-free medium. A solution of sterile 1.5% agarose (Type VI-A, Sigma, St. Louis, Mo.) was added to the wells of a 6-well plate. The wells were filled with clotting fibrinogen solution and an aortic ring was transferred into the well positioned with the lumen oriented horizontally in the center of the fibrin gel solution. The fibrinogen solution was prepared in MCDB 131 medium with bovine fibrinogen at 3 mg/ml. Clotting was initiated by adding 20 μl of a 50 NIH units/ml bovine thrombin solution and the fibrin gel generally formed within 30 seconds. The fibrinolytic inhibitor amino-n-caproic acid was added to the culture medium at 300 µg/ml (microgram per milliliter) for the first four days of the assay and at 50 μg/ml from day 5 to day 8. Once the fibrin gel solution solidified, 5 ml of serum-free MCDB 131 media containing 100 μg/ml penicillin, 100 μg/ml streptomycin and 0.25 μg/ml amphotericin B was added to each well. Explants were incubated at 37° C. with 5% CO2 for 8 days. Medium was replaced every 2-3 days and the assay was analyzed on day 8. Inhibition of vascular sprouting was measured by adding test compounds diluted in DMSO.

HCT-116 colon carcinoma = test: Cell proliferation assay (14C-thymidine incorporation), HCT-116; conditions: Homo sapiens, read-out: Inhibition of cell proliferation IC50
Description: as §1, §2

OCCCNc1cncc(-c2cncc(Nc3cccc(Cl)c3)n2)c1 [Cmd 4, 3-[[5-[6-[(3-chlorophenyl)amino]pyrazinyl]-3-pyridinyl]amino]-1-propanol]
pIC50 [1]: 4.95
pIC50 [2]: 5.34
pIC50 (MDA-MB-231): 5.49
pIC50 [3]: 5.52
pIC50 (rat aortic ring): 7.00
pIC50 (HCT-116 colon carcinoma): 5.08

CN(C)CCCNc1cncc(-c2cncc(Nc3cccc(Cl)c3)n2)c1 [Cmd 35, N^1-[5-[6-[(3-chlorophenyl)amino]pyrazinyl]-3-pyridinyl]-N^3,N^3-dimethyl-1,3-propanediamine]
pIC50 [1]: < 4.00
pIC50 [2]: < 4.00
pIC50 (MDA-MB-231): 4.01
pIC50 [3]: 4.71
pIC50 (rat aortic ring): < 6.00
pIC50 (HCT-116 colon carcinoma): < 4.00

OCCCCNc1cncc(-c2cncc(Nc3cccc(Cl)c3)n2)c1 [Cmd 32, 4-[[5-[6-[(3-chlorophenyl)amino]pyrazinyl]-3-pyridinyl]amino]-1-butanol]
pIC50 [1]: 4.17
pIC50 [2]: 4.06
pIC50 (MDA-MB-231): 4.56
pIC50 [3]: 4.84
pIC50 (rat aortic ring): 6.08
pIC50 (HCT-116 colon carcinoma): 4.63
